For `O=C(O)c1cccnc1`, the solubility (mole fraction) (in DMSO, 283.15 K) was 0.0437, the solubility (mole fraction) (in DMSO, 293.15 K) was 0.0576 and the solubility (mole fraction) (in DMSO, 303.15 K) was 0.0722. It also gave a solubility (mole fraction) (in DMSO, 313.15 K) of 0.0889, a solubility (mole fraction) (in DMSO, 323.15 K) of 0.107 and a solubility (mole fraction) (in DMSO, 333.15 K) of 0.127. The solubility (mole fraction) (in DMSO, 343.15 K) was 0.15, the solubility (mole fraction) (in acetone, 283.15 K) was 0.00062 and the solubility (mole fraction) (in acetone, 293.15 K) was 0.00104. The solubility (mole fraction) (in acetone, 303.15 K) was 0.00166, the solubility (mole fraction) (in acetone, 313.15 K) was 0.00262 and the solubility (mole fraction) (in acetone, 323.15 K) was 0.00408. For the same molecule, the solubility (mole fraction) (in ethanol, 283.15 K) was 0.00202, the solubility (mole fraction) (in ethanol, 293.15 K) was 0.00312 and the solubility (mole fraction) (in ethanol, 303.15 K) was 0.00468. For the same molecule, the solubility (mole fraction) (in ethanol, 313.15 K) was 0.00683, the solubility (mole fraction) (in ethanol, 323.15 K) was 0.00978 and the solubility (mole fraction) (in ethanol, 333.15 K) was 0.0136. It also gave a solubility (mole fraction) (in ethanol, 343.15 K) of 0.0188, a solubility (mole fraction) (in ethyl acetate, 283.15 K) of 0.00033 and a solubility (mole fraction) (in ethyl acetate, 293.15 K) of 0.00054. The solubility (mole fraction) (in ethyl acetate, 303.15 K) was 0.00093, the solubility (mole fraction) (in ethyl acetate, 313.15 K) was 0.00149 and the solubility (mole fraction) (in ethyl acetate, 323.15 K) was 0.00246. For the same molecule, the solubility (mole fraction) (in ethyl acetate, 333.15 K) was 0.00401, the solubility (mole fraction) (in ethyl acetate, 343.15 K) was 0.00603 and the solubility (mole fraction) (in isopropanol, 283.15 K) was 0.00177. For the same molecule, the solubility (mole fraction) (in isopropanol, 293.15 K) was 0.00276, the solubility (mole fraction) (in isopropanol, 303.15 K) was 0.00418 and the solubility (mole fraction) (in isopropanol, 313.15 K) was 0.00617. For the same molecule, the solubility (mole fraction) (in isopropanol, 323.15 K) was 0.00891, the solubility (mole fraction) (in isopropanol, 333.15 K) was 0.0125 and the solubility (mole fraction) (in isopropanol, 343.15 K) was 0.0172. It also gave a solubility (mole fraction) (in methanol, 283.15 K) of 0.00238, a solubility (mole fraction) (in methanol, 293.15 K) of 0.00382 and a solubility (mole fraction) (in methanol, 303.15 K) of 0.00587. It also gave a solubility (mole fraction) (in methanol, 313.15 K) of 0.00889, a solubility (mole fraction) (in methanol, 323.15 K) of 0.0129 and a solubility (mole fraction) (in n-butanol, 283.15 K) of 0.0014. For the same molecule, the solubility (mole fraction) (in n-butanol, 293.15 K) was 0.00231, the solubility (mole fraction) (in n-butanol, 303.15 K) was 0.00351 and the solubility (mole fraction) (in n-butanol, 313.15 K) was 0.00554. It also gave a solubility (mole fraction) (in n-butanol, 323.15 K) of 0.00855, a solubility (mole fraction) (in n-butanol, 333.15 K) of 0.0123 and a solubility (mole fraction) (in n-butanol, 343.15 K) of 0.0178. The solubility (mole fraction) (in n-butanol, 353.15 K) was 0.0253, the solubility (mole fraction) (in n-propanol, 283.15 K) was 0.00179 and the solubility (mole fraction) (in n-propanol, 293.15 K) was 0.00285. It also gave a solubility (mole fraction) (in n-propanol, 303.15 K) of 0.00435, a solubility (mole fraction) (in n-propanol, 313.15 K) of 0.00641 and a solubility (mole fraction) (in n-propanol, 323.15 K) of 0.00923. For the same molecule, the solubility (mole fraction) (in n-propanol, 333.15 K) was 0.0131, the solubility (mole fraction) (in n-propanol, 343.15 K) was 0.0186 and the solubility (mole fraction) (in water, 283.15 K) was 0.00165. The solubility (mole fraction) (in water, 293.15 K) was 0.00215, the solubility (mole fraction) (in water, 303.15 K) was 0.00279 and the solubility (mole fraction) (in water, 313.15 K) was 0.00363. The solubility (mole fraction) (in water, 323.15 K) was 0.00458, the solubility (mole fraction) (in water, 333.15 K) was 0.00576 and the solubility (mole fraction) (in water, 343.15 K) was 0.00704. For the same molecule, the solubility (mole fraction) (in water, 353.15 K) was 0.00872 and the solubility (mole fraction) (in water, 363.15 K) was 0.0107.

From BigSolDB 2.1
